Test [1] has as its system CTL epitope-specific CD8^+ T cells. The arrangement: species or system BALB/c mice. The note with it: mouse, in vivo.
The subject of another test is PBMC. In words: PBMC proliferation induced by Th epitope P25. In kind it is cell-based, human. An excerpt:
Preferably, the Th cell epitope is P25, KLIPNASLIENCTKAEL (SEQ ID No:8), from the F protein of morbillivirus (Ghosh et al, 2001). This epitope is promiscuous in all outbred dogs that have been studied by the inventors so far and also in all strains of mice and cattle examined (unpublished results). This epitope is also able to induce PBMC proliferation in at least 50% of blood samples extracted from human volunteers. The F protein is conserved across most morbilliviruses and in the case of P25 is conserved in canine distemper virus, rhinderpest and measles viruses.

Turning to “GALNNRFQIKGVELKS-K(Pam2CSS)-TYQRTRALV [lipopeptide]”, in test [1], the “antigen-specific CD8+ T cell responses compared with non-lipidated peptide” value was “not enhanced”; the “antigen-specific CD8+ T cells in lung and spleen compared with non-lipidated peptide” value was “more antigen-specific CD8^+ T cells”.

In the case of KLIPNASLIENCTKAEL (Morbillivirus) [P25], the “blood samples from human volunteers in which PBMC proliferation is induced” value with PBMC is listed as “at least 50%”.
